Like-named read-outs stand apart in the source and are kept apart here. One block for each compound: values may come before it.
Key:
[1] = tested on: A375-XP cells (Vemurafenib-resistant); experiment: Dose-response curves and IC50, PrestoBlue cell viability, 72 h; type: cell-based, human; details: n.e. = did not suppress growth below 50% in the tested concentration range; for IC50: read-out: Half-maximal inhibitory concentration value (IC50), Mean
[2] = tested on: A375-GP cells (Dabrafenib-resistant); experiment: as above; type: cell-based, human; details: n.e. = did not suppress growth below 50% in the tested concentration range; for IC50: read-out: Half-maximal inhibitory concentration value (IC50), Mean
[3] = tested on: A375 cells (parental); experiment: as above; type: cell-based, human; details: for IC50: read-out: Half-maximal inhibitory concentration value (IC50), Mean
[4] = tested on: 501Mel-XP cells (Vemurafenib-resistant); experiment: Kinase inhibitor library screening, PrestoBlue cell viability, 1 or 10 μM, 72 h; details: 501Mel XP, 72 h
[5] = tested on: IGR37-GP cells (Dabrafenib-resistant); experiment: as above; details: IGR37 GP, 72 h
[6] = tested on: 501Mel cells (parental); experiment: as above; details: 501Mel Parental, 72 h
In short: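 PrestoBlue viability readout after 72 h exposure to each inhibitor at 1 or 10 μM, reported relative to untreated cells as % viability. Lines tested: sensitive parental plus derivatives resistant to Vemurafenib (XP) or Dabrafenib (GP), each run at least in duplicate.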

[7] = tested on: 501Mel-GP cells (Dabrafenib-resistant); experiment: as above; details: 501Mel GP, 72 h
[8] = tested on: IGR37-XP cells (Vemurafenib-resistant); experiment: as above; details: IGR37 XP, 72 h
[9] = tested on: IGR37 cells (parental); experiment: as above; details: IGR37 Parental, 72 h
[10] = tested on: A375-XP cells (Vemurafenib-resistant); experiment: as above; details: A375 XP, 72 h
[11] = tested on: A375 cells (parental); experiment: as above; details: A375 Parental, 72 h
[12] = tested on: A375-GP cells (Dabrafenib-resistant); experiment: as above; details: A375 GP, 72 h
[13] = n.e. = did not suppress growth below 50% in the tested concentration range
[14] = Homo sapiens, A-375, n.e. = did not suppress growth below 50% in the tested concentration range

Half-maximal inhibitory concentration value (IC50), Mean [1]: n.e.
Half-maximal inhibitory concentration value (IC50), Mean [2]: n.e.
Compound: Cn1cnc2c(F)c(Nc3ccc(Br)cc3Cl)c(C(=O)NOCCO)cc21 [AZD6244]
Half-maximal inhibitory concentration value (IC50), Mean [3, 13]: n.e.

Half-maximal inhibitory concentration value (IC50), Mean [1]: n.e.
Half-maximal inhibitory concentration value (IC50), Mean [2]: n.e.
Compound: CCN(CCCOc1ccc2c(Nc3cc(CC(=O)Nc4cccc(F)c4)n[nH]3)ncnc2c1)CCOP(=O)(O)O [Barasertib]
Half-maximal inhibitory concentration value (IC50), Mean [3, 13]: n.e.

IC50 [1]: 769 nM
IC50 [2]: 969 nM
Compound: CNC(=O)c1c(F)cccc1Nc1nc(Nc2cc3c(cc2OC)CCN3C(=O)CN(C)C)nc2[nH]ccc12 [GSK1838705A, reference compound]
cell viability, 501Mel XP, 1μΜ ([4]; 1μΜ, in %): 70.4
cell viability, 501Mel XP, 10μΜ ([4]; 10μΜ, in %): -0.3
cell viability, IGR37 GP, 10μΜ ([5]; 10μΜ): 2%
cell viability, IGR37 GP, 1μΜ ([5]; 1μΜ, in %): 73.7
cell viability, 501Mel Parental, 1μΜ ([6]; 1μΜ, in %): 73.7
cell viability, 501Mel Parental, 10μΜ ([6]; 10μΜ, in %): 0.4
cell viability, 501Mel GP, 1μΜ ([7]; 1μΜ, in %): 75.8
cell viability, 501Mel GP, 10μΜ ([7]; 10μΜ, in %): -0.19
cell viability, IGR37 XP, 10μΜ ([8]; 10μΜ): 1%
cell viability, IGR37 XP, 1μΜ ([8]; 1μΜ, in %): 42.8
cell viability, IGR37 Parental, 1μΜ ([9]; 1μΜ, in %): 92.2
cell viability, IGR37 Parental, 10μΜ ([9]; 10μΜ, in %): 1.2
cell viability, A375 XP, 1μΜ ([10]; 1μΜ, in %): 70.8
cell viability, A375 XP, 10μΜ ([10]; 10μΜ, in %): 11.1
cell viability, A375 Parental, 1μΜ ([11]; 1μΜ, in %): 68.1
cell viability, A375 Parental, 10μΜ ([11]; 10μΜ, in %): 12.8
cell viability, A375 GP, 1μΜ ([12]; 1μΜ, in %): 67.8
cell viability, A375 GP, 10μΜ ([12]; 10μΜ, in %): 10.4
IC50 [3, 13]: 1200 nM

IC50 ([1]; Homo sapiens): 2940 nM
IC50 ([2]; Homo sapiens): 2080 nM
Compound: C[C@]1(O)C[C@@H](c2nc(-c3ccc4ccc(-c5ccccc5)nc4c3)c3c(N)nccn32)C1 [Linsitinib]
IC50 [3, 14]: 4170 nM

IC50 [1]: 191 nM
IC50 [2]: 254 nM
Compound: COc1ccc(-c2cc3c(C)nc(N)nc3n([C@H]3CC[C@H](OCCO)CC3)c2=O)cn1 [PF-04691502, reference compound]
Cell viability in kinase inhibitor library screening, 501Mel XP, 1μΜ ([4]; 1μΜ, in %): 10.0
Cell viability in kinase inhibitor library screening, 501Mel XP, 10μΜ ([4]; 10μΜ, in %): -0.224
Cell viability in kinase inhibitor library screening, IGR37 GP, 10μΜ ([5]; 10μΜ): 7.5%
Cell viability in kinase inhibitor library screening, IGR37 GP, 1μΜ ([5]; 1μΜ, in %): 50.6
Cell viability in kinase inhibitor library screening, 501Mel Parental, 1μΜ ([6]; 1μΜ, in %): 21.9
Cell viability in kinase inhibitor library screening, 501Mel Parental, 10μΜ ([6]; 10μΜ, in %): 0.8
Cell viability in kinase inhibitor library screening, 501Mel GP, 1μΜ ([7]; 1μΜ, in %): 14.9
Cell viability in kinase inhibitor library screening, 501Mel GP, 10μΜ ([7]; 10μΜ, in %): 0.379
Cell viability in kinase inhibitor library screening, IGR37 XP, 10μΜ ([8]; 10μΜ): 3.2%
Cell viability in kinase inhibitor library screening, IGR37 XP, 1μΜ ([8]; 1μΜ, in %): 22.1
Cell viability in kinase inhibitor library screening, IGR37 Parental, 1μΜ ([9]; 1μΜ, in %): 38.6
Cell viability in kinase inhibitor library screening, IGR37 Parental, 10μΜ ([9]; 10μΜ, in %): 5.0
Cell viability in kinase inhibitor library screening, A375 XP, 1μΜ ([10]; 1μΜ): 18.5
Cell viability in kinase inhibitor library screening, A375 XP, 10μΜ ([10]; 10μΜ): 3.3
Cell viability in kinase inhibitor library screening, A375 Parental, 10μΜ ([11]; 10μΜ): 2.9
Cell viability in kinase inhibitor library screening, A375 Parental, 1μΜ ([11]; 1μΜ): 25.2
Cell viability in kinase inhibitor library screening, A375 GP, 1μΜ ([12]; 1μΜ): 22.6
Cell viability in kinase inhibitor library screening, A375 GP, 10μΜ ([12]; 10μΜ): 3.9
IC50 [3, 13]: 298 nM

IC50 ([1]; Homo sapiens): 1050 nM
IC50 ([2]; Homo sapiens): 720 nM
Compound: CC(C)CC(=O)Nc1[nH]nc2c1CN(C(=O)C1CCN(C)CC1)C2(C)C [PHA-793887, reference compound]
cell viability (kinase inhibitor library screening) ([4]; 1μΜ): 88.3%
cell viability (kinase inhibitor library screening) ([4]; 10μΜ): 13.3%
cell viability (kinase inhibitor library screening) ([5]; 1μΜ): 96.5%
cell viability (kinase inhibitor library screening) ([5]; 10μΜ): 23.5%
cell viability (kinase inhibitor library screening) ([6]; 1μΜ): 90.8%
cell viability (kinase inhibitor library screening) ([6]; 10μΜ): 20.0%
cell viability (kinase inhibitor library screening) ([7]; 10μΜ): 25.0%
cell viability (kinase inhibitor library screening) ([8]; 1μΜ): 87.3%
cell viability (kinase inhibitor library screening) ([8]; 10μΜ): 5.3%
cell viability (kinase inhibitor library screening) ([9]; 1μΜ): 100.2%
cell viability (kinase inhibitor library screening) ([9]; 10μΜ): 41.8%
cell viability (kinase inhibitor library screening) ([10]; 1μΜ): 60.1%
cell viability (kinase inhibitor library screening) ([10]; 10μΜ): 10.2%
cell viability (kinase inhibitor library screening) ([11]; 10μΜ): 8.5%
cell viability (kinase inhibitor library screening) ([11]; 1μΜ): 47.0%
cell viability (kinase inhibitor library screening) ([12]; 1μΜ): 52.2%
cell viability (kinase inhibitor library screening) ([12]; 10μΜ): 4.2%
IC50 [3, 14]: 578 nM

IC50 ([1]; Homo sapiens): 4990 nM
IC50 ([2]; Homo sapiens): 2210 nM
Compound: CC(=O)c1c(C)c2cnc(Nc3ccc(N4CCNCC4)cn3)nc2n(C2CCCC2)c1=O [Palbociclib]
IC50 [3, 14]: 5320 nM

IC50 ([1]; Homo sapiens): 1710 nM
IC50 ([2]; Homo sapiens): 701 nM
Compound: CNC(=O)c1cc(Oc2ccc(NC(=O)Nc3ccc(Cl)c(C(F)(F)F)c3)c(F)c2)ccn1 [Regorafenib]
IC50 [3, 14]: 2730 nM

Compound: COc1cc2c(Nc3ccc(NC(=O)c4ccccc4)cc3)ncnc2cc1OCCCN1CCOCC1 [ZM-447439]
cell viability (kinase inhibitor library screening) ([4]; 1μΜ): 90.5%
cell viability (kinase inhibitor library screening) ([4]; 10μΜ): -0.26%
cell viability (kinase inhibitor library screening) ([5]; 1μΜ): 96.5%
cell viability (kinase inhibitor library screening) ([5]; 10μΜ): 69.7%
cell viability (kinase inhibitor library screening) ([6]; 1μΜ): 90.8%
cell viability (kinase inhibitor library screening) ([6]; 10μΜ): 7.6%
cell viability (kinase inhibitor library screening) ([7]; 1μΜ): 104.5%
cell viability (kinase inhibitor library screening) ([7]; 10μΜ): 2.3%
cell viability (kinase inhibitor library screening) ([8]; 1μΜ): 95.9%
cell viability (kinase inhibitor library screening) ([8]; 10μΜ): 24.7%
cell viability (kinase inhibitor library screening) ([9]; 1μΜ): 103.7%
cell viability (kinase inhibitor library screening) ([9]; 10μΜ): 54.6%
cell viability (kinase inhibitor library screening) ([10]; 1μΜ): 88.7%
cell viability (kinase inhibitor library screening) ([10]; 10μΜ): 65.2%
cell viability (kinase inhibitor library screening) ([11]; 10μΜ): 56.3%
cell viability (kinase inhibitor library screening) ([11]; 1μΜ): 76.7%
cell viability (kinase inhibitor library screening) ([12]; 1μΜ): 79.5%
cell viability (kinase inhibitor library screening) ([12]; 10μΜ): 52.0%

Compound: FC(F)c1nc2ccccc2n1-c1nc(N2CCOCC2)nc(N2CCOCC2)n1 [ZSTK474]
Cell viability in kinase inhibitor library screening, 501Mel XP, 10μΜ ([4]; 10μΜ, in %): 2.5
Cell viability in kinase inhibitor library screening, IGR37 GP, 10μΜ ([5]; 10μΜ): 8.8%
Cell viability in kinase inhibitor library screening, IGR37 GP, 1μΜ ([5]; 1μΜ, in %): 80.3
Cell viability in kinase inhibitor library screening, 501Mel Parental, 1μΜ ([6]; 1μΜ, in %): 66.9
Cell viability in kinase inhibitor library screening, 501Mel Parental, 10μΜ ([6]; 10μΜ, in %): 8.9
Cell viability in kinase inhibitor library screening, 501Mel GP, 1μΜ ([7]; 1μΜ, in %): 45.9
Cell viability in kinase inhibitor library screening, 501Mel GP, 10μΜ ([7]; 10μΜ, in %): 9.4
Cell viability in kinase inhibitor library screening, IGR37 XP, 10μΜ ([8]; 10μΜ): 4.7%
Cell viability in kinase inhibitor library screening, IGR37 XP, 1μΜ ([8]; 1μΜ, in %): 71.7
Cell viability in kinase inhibitor library screening, IGR37 Parental, 1μΜ ([9]; 1μΜ, in %): 77.8
Cell viability in kinase inhibitor library screening, IGR37 Parental, 10μΜ ([9]; 10μΜ, in %): 23.8
Cell viability in kinase inhibitor library screening, A375 XP, 1μΜ ([10]; 1μΜ): 67.6
Cell viability in kinase inhibitor library screening, A375 XP, 10μΜ ([10]; 10μΜ): 15.9
Cell viability in kinase inhibitor library screening, A375 Parental, 10μΜ ([11]; 10μΜ): 16.3
Cell viability in kinase inhibitor library screening, A375 Parental, 1μΜ ([11]; 1μΜ): 76.3
Cell viability in kinase inhibitor library screening, A375 GP, 1μΜ ([12]; 1μΜ): 69.9
Cell viability in kinase inhibitor library screening, A375 GP, 10μΜ ([12]; 10μΜ): 13.0

Compound: MK-2206 dihydrochloride
cell viability (kinase inhibitor library screening) ([4]; 1μΜ): 69.2%
cell viability (kinase inhibitor library screening) ([4]; 10μΜ): 1.7%
cell viability (kinase inhibitor library screening) ([5]; 1μΜ): 100.0%
cell viability (kinase inhibitor library screening) ([5]; 10μΜ): 15.9%
cell viability (kinase inhibitor library screening) ([6]; 1μΜ): 98.7%
cell viability (kinase inhibitor library screening) ([6]; 10μΜ): 7.6%
cell viability (kinase inhibitor library screening) ([7]; 1μΜ): 90.7%
cell viability (kinase inhibitor library screening) ([7]; 10μΜ): 28.3%
cell viability (kinase inhibitor library screening) ([8]; 1μΜ): 94.6%
cell viability (kinase inhibitor library screening) ([8]; 10μΜ): 4.2%
cell viability (kinase inhibitor library screening) ([9]; 10μΜ): 25.6%
cell viability (kinase inhibitor library screening) ([10]; 1μΜ): 93.8%
cell viability (kinase inhibitor library screening) ([10]; 10μΜ): 54.1%
cell viability (kinase inhibitor library screening) ([11]; 10μΜ): 74.4%
cell viability (kinase inhibitor library screening) ([12]; 1μΜ): 96.2%
cell viability (kinase inhibitor library screening) ([12]; 10μΜ): 66.2%

Reference: paper PMC6364417, “Kinase inhibitor library screening identifies synergistic drug combinations effective in sensitive and resistant melanoma cells” (Journal of Experimental & Clinical Cancer Research : CR, 2019)
